Results as given in patent US7816384B2, “Method for treating a demyelinating condition” (priority 2000, dated 2010).

Columns and labels:
[1] = test system: EAE; conditions: NBQX treatment in EAE; cited from earlier work
[2] = test system: adoptive-transfer EAE in female SJL mice; experiment: Adoptive-transfer EAE, treatment with amlodipine (Example 1); type: in vivo, mouse; conditions: two representative animals per group at sampling; clinical index 0-5; control group 2.8
Description: FIG. 1 illustrates the clinical course of adoptive-transfer EAE and the effect of treatment with amlodipine. SJL mice were injected with 3×10^7 MBP-activated cells. Starting from Day 5 post-immunization, mice were treated with amlodipine (30 μg as one daily subcutaneous injection) or vehicle (PBS), until Day 13 (Day 9 of treatment). Data represent mean±s.e.m. differences, at respective time-points, between the vehicle-treated group and the amlodipine-treated group. *=p<0.05; **=p<0.01 (students' unpaired, two-tailed t-test); n=8 per group. Induction of Experimental Autoimmune Encephalomyelitis (EAE). Adoptive-transfer EAE was induced in female SJL mice as described ([…] et al., 1998). In brief, lymph node cells were obtained 10 days after myelin basic protein/Complete Freund's Adjuvant immunization. Cells were cultured for 4 days with 50 μg/ml of myelin basic protein, then 3×10^7 cells/mouse were injected into syngeneic mice via tail veins. Onset of disease occurred after 7-9 days. Animals were graded according to a standard clinical index (0-5). Five days after immunization, animals began treatments with one daily injection of 200 μl of vehicle (PBS), or 30 μg of amlodipine in 200 μl of PBS. Neuropathology. At selected time-points, mice from the control and treated groups were perfused with PBS or glutaraldehyde, and the CNS was prepared for frozen or 1-μm epoxy sections, respectively. […]

[3] = test system: AT-EAE in female SJL/J mice; experiment: Adoptive-transfer EAE (AT-EAE), treatment with bepridil or nitrendipine (Example 2); type: in vivo, mouse; conditions: for difference in average disease scores between vehicle and bepridil groups: bepridil 3 mg/kg from day 3 p.t. (n=14 vs 15); for average difference in disease scores vs vehicle: average over days 13-20 p.t.
[4] = bepridil 3 mg/kg s.c. daily from day 0

SMILES: NS(=O)(=O)c1cccc2c1c([N+](=O)[O-])cc1[nH]c(=O)c(=O)[nH]c12 [NBQX, 1,2,3,4-tetrahydro-6-nitro-2,3-dioxo-benzoquinoxaline-7-sulfonamide]
- course of disease, loss of oligodendrocytes and axonal damage [1]: significantly ameliorated the course of the disease and reduced loss of oligodendrocytes and axonal damage

SMILES: CCOC(=O)C1=C(COCCN)NC(C)=C(C(=O)OC)C1c1ccccc1Cl (stereo not shown) [amlodipine, 3-ethyl-5-methyl-2-(2-aminoethoxymethyl)-4-(2-chlorophenyl)-1,4-dihydro-6-methyl-3,5-pyridinedicarboxylate]
- average clinical score [2]: 1.3

SMILES: CC(C)COCC(CN(Cc1ccccc1)c1ccccc1)N1CCCC1 (stereo not shown) [bepridil]
- difference in average disease scores between vehicle and bepridil groups ([3]; day 13 p.t.): 1.07 points
- difference in average disease scores between vehicle and bepridil groups ([3]; day 14 p.t.): 1.20 points
- difference in average disease scores between vehicle and bepridil groups ([3]; day 15 p.t.): 0.99 points
- difference in average disease scores between vehicle and bepridil groups ([3]; day 16 p.t.): 1.18 points
- average difference in disease scores between vehicle and bepridil groups ([3]; bepridil 3 mg/kg from day 3 p.t., average over days 13-16 p.t.): −1.11±0.05 points
- delay of overt disease onset compared with vehicle [3, 4]: more than 5 days
- average difference in disease scores vs vehicle [3, 4]: 1.66±0.06 points
- average difference in disease scores vs vehicle ([3]; bepridil 3 mg/kg s.c. daily from day 0, listed as Bepridil): −1.66±0.06 points
- reduction of daily average disease score vs vehicle ([3]; bepridil 3 mg/kg s.c. daily from day 0, day 13 p.t.): 1.8 points
- reduction of daily average disease score vs vehicle ([3]; bepridil 3 mg/kg s.c. daily from day 0, day 14 p.t.): 2.0 points
- reduction of daily average disease score vs vehicle ([3]; bepridil 3 mg/kg s.c. daily from day 0, day 15 p.t.): 1.45 points
- reduction of daily average disease score vs vehicle ([3]; bepridil 3 mg/kg s.c. daily from day 0, day 16 p.t.): 1.65 points
- reduction of daily average disease score vs vehicle ([3]; bepridil 3 mg/kg s.c. daily from day 0, day 17 p.t.): 1.60 points
- reduction of daily average disease score vs vehicle ([3]; bepridil 3 mg/kg s.c. daily from day 0, day 18 p.t.): 1.60 points
- reduction of daily average disease score vs vehicle ([3]; bepridil 3 mg/kg s.c. daily from day 0, day 19 p.t.): 1.70 points
- reduction of daily average disease score vs vehicle ([3]; bepridil 3 mg/kg s.c. daily from day 0, day 20 p.t.): 1.5 points

SMILES: CCOC(=O)C1=C(C)NC(C)=C(C(=O)OC)C1c1cccc([N+](=O)[O-])c1 (stereo not shown) [nitrendipine, ethyl methyl-1,4-dihydro-2,6-dimethyl-4-(m-nitrophenyl)-3,5-pyridinedicarboxylate]
- average amelioration of clinical impairment vs vehicle ([3]; nitrendipine 2.5 mg/kg s.c. daily from day 0, average over days 15-20 p.t.): −1.77±0.11 points
- amelioration of clinical impairment (disability score) vs vehicle ([3]; nitrendipine 2.5 mg/kg s.c. daily from day 0, day 15 p.t.): 1.5 points
- amelioration of clinical impairment (disability score) vs vehicle ([3]; nitrendipine 2.5 mg/kg s.c. daily from day 0, day 16 p.t.): 1.7 points
- amelioration of clinical impairment (disability score) vs vehicle ([3]; nitrendipine 2.5 mg/kg s.c. daily from day 0, day 17 p.t.): 1.9 points
- amelioration of clinical impairment (disability score) vs vehicle ([3]; nitrendipine 2.5 mg/kg s.c. daily from day 0, day 18 p.t.): 2.25 points
- amelioration of clinical impairment (disability score) vs vehicle ([3]; nitrendipine 2.5 mg/kg s.c. daily from day 0, day 19 p.t.): 1.65 points
- amelioration of clinical impairment (disability score) vs vehicle ([3]; nitrendipine 2.5 mg/kg s.c. daily from day 0, day 20 p.t.): 1.6 points
